Measured values reported in patent US20100152434A1, “Protein Kinase-binding Nucleosides and Associated Methods” (priority 2007, published 2010).
Where two headings read alike, the source gives them in different places.

What was measured:
HOP-62 = test: cells; settings: Homo sapiens, HOP-62
MDA-MB-231/ATCC = test: cells; settings: Homo sapiens, MDA-MB-231
UACC-257 = test: cells; settings: Homo sapiens, UACC-257
NCI-H522 [1] = test: cells; settings: Homo sapiens, NCI-H522
HCT-15 [2] = test: cells; settings: Homo sapiens, HCT-15
HCC-2998 = test: cells; settings: Homo sapiens, HCC 2998
NCI-H522 [3] = tested on: NCI-H522
788-0 = test: cells; settings: Homo sapiens, 786-0
MCF7 = test: cells; settings: Homo sapiens, MCF7
HCT-15 [4] = tested on: HCT-15
ACHN [5] = test: cells; settings: Homo sapiens
ACHN [6] = tested on: ACHN
RPMI-8226 [7] = test: cells; settings: Homo sapiens, RPMI-8226
RPMI-8226 [8] = tested on: RPMI-8226
NCI-H226 [9] = tested on: NCI-H226
M14 = test: cells; settings: Homo sapiens, M14
NCI-H226 [10] = test: cells; settings: Homo sapiens, NCI-H226
UO-31 = test: cells; settings: Homo sapiens, UO-31
HCT-116 = test: cells; settings: Homo sapiens, HCT-116
UACC-62 = test: cells; settings: Homo sapiens, UACC-62
[11] = Log10 Concentration −4.0, Molar
[12] = Log10 Concentration −5.0, Molar
[13] = Log10 Concentration −6.0, Molar
[14] = Log10 Concentration −7.0, Molar
[15] = Log10 Concentration −8.0, Molar

CNC(=O)NC[C@H]1O[C@@H](n2cnc3c(NC(=O)Nc4ccccc4)ncnc32)C(O[Si](C)(C)C(C)(C)C)[C@H]1O[Si](C)(C)C(C)(C)C (some centres unmarked) [Compound 25, 2′,3′-Bis-O-(tert-butyldimethylsilyl)-5-deoxy-5′-[(N-methylcarbamoyl)amino]-N^6-(N-phenylcarbamoyl)adenosine]
GI50 (HOP-62): 49.8 µM
IC50 (HOP-62): 49 µM
GI50 (MDA-MB-231/ATCC): 2.81 µM
IC50 (MDA-MB-231/ATCC): 28.3 µM
GI50 (UACC-257): 3.78 µM
IC50 (UACC-257): > 100 µM
TGI (A549/ATCC): 1.20E−5 Molar
Percent Growth (A549/ATCC; [11]): −30%
Percent Growth (A549/ATCC; [12]): 4%
Percent Growth (A549/ATCC; [13]): 90%
Percent Growth (A549/ATCC; [14]): 98%
Percent Growth (A549/ATCC; [15]): 99%
TGI (OVCAR-4): 4.39E−5 Molar
Percent Growth (OVCAR-4; [11]): −4%
Percent Growth (OVCAR-4; [12]): 7%
Percent Growth (OVCAR-4; [13]): 100%
Percent Growth (OVCAR-4; [14]): 106%
Percent Growth (OVCAR-4; [15]): 106%
GI50 (NCI-H522 [1]): 2.39 µM
IC50 (NCI-H522 [1]): > 100 µM
GI50 (HCT-15 [2]): 3.62 µM
IC50 (HCT-15 [2]): > 100 µM
GI50 (HCC-2998): 2.02 µM
IC50 (HCC-2998): 6.99 µM
TGI (NCI-H522 [3]): 7.14E−6 Molar
Percent Growth (NCI-H522 [3]; [11]): −49%
Percent Growth (NCI-H522 [3]; [12]): −15%
Percent Growth (NCI-H522 [3]; [13]): 90%
Percent Growth (NCI-H522 [3]; [14]): 90%
Percent Growth (NCI-H522 [3]; [15]): 92%
TGI (SK-MEL-2): 5.54E−6 Molar
Percent Growth (SK-MEL-2; [11]): −67%
Percent Growth (SK-MEL-2; [12]): −35%
Percent Growth (SK-MEL-2; [13]): 105%
Percent Growth (SK-MEL-2; [14]): 110%
Percent Growth (SK-MEL-2; [15]): 106%
GI50 (788-0): 2.04 µM
IC50 (788-0): 6.75 µM
GI50 (MCF7): 2.69 µM
IC50 (MCF7): > 100 µM
TGI (HCT-15 [4]): >1.00E−4 Molar
Percent Growth (HCT-15 [4]; [11]): 6%
Percent Growth (HCT-15 [4]; [12]): 11%
Percent Growth (HCT-15 [4]; [13]): 100%
Percent Growth (HCT-15 [4]; [14]): 106%
Percent Growth (HCT-15 [4]; [15]): 105%
TGI (EKVX): 3.06E−5 Molar
Percent Growth (EKVX; [11]): −9%
Percent Growth (EKVX; [12]): 9%
Percent Growth (EKVX; [13]): 104%
Percent Growth (EKVX; [14]): 111%
Percent Growth (EKVX; [15]): 106%
GI50 (ACHN [5]): 3.83 µM
IC50 (ACHN [5]): > 100 µM
TGI (SN12C): 3.38E−6 Molar
Percent Growth (SN12C; [11]): −90%
Percent Growth (SN12C; [12]): −87%
Percent Growth (SN12C; [13]): 98%
Percent Growth (SN12C; [14]): 100%
Percent Growth (SN12C; [15]): 100%
TGI (ACHN [6]): >1.00E−4 Molar
Percent Growth (ACHN [6]; [11]): 2%
Percent Growth (ACHN [6]; [12]): 10%
Percent Growth (ACHN [6]; [13]): 105%
Percent Growth (ACHN [6]; [14]): 108%
Percent Growth (ACHN [6]; [15]): 107%
GI50 (RPMI-8226 [7]): 3.27 µM
IC50 (RPMI-8226 [7]): > 100 µM
TGI (RPMI-8226 [8]): >1.00E−4 Molar
Percent Growth (RPMI-8226 [8]; [11]): 4%
Percent Growth (RPMI-8226 [8]; [12]): 5%
Percent Growth (RPMI-8226 [8]; [13]): 98%
Percent Growth (RPMI-8226 [8]; [14]): 98%
Percent Growth (RPMI-8226 [8]; [15]): 102%
TGI (NCI-H226 [9]): 3.63E−6 Molar
Percent Growth (NCI-H226 [9]; [11]): −48%
Percent Growth (NCI-H226 [9]; [12]): −7%
Percent Growth (NCI-H226 [9]; [13]): 105%
Percent Growth (NCI-H226 [9]; [14]): 106%
Percent Growth (NCI-H226 [9]; [15]): 102%
GI50 (M14): 4.33 µM
IC50 (M14): 93.8 µM
GI50 (NCI-H226 [10]): 3.1 µM
IC50 (NCI-H226 [10]): > 100 µM
GI50 (UO-31): 2.5 µM
IC50 (UO-31): > 100 µM
GI50 (HCT-116): 2.11 µM
IC50 (HCT-116): 8.8 µM
TGI (SF-268): 1.40E−5 Molar
Percent Growth (SF-268; [11]): 45%
Percent Growth (SF-268; [12]): 8%
Percent Growth (SF-268; [13]): 102%
Percent Growth (SF-268; [14]): 106%
Percent Growth (SF-268; [15]): 104%
TGI (T-47D): 1.03E−5 Molar
Percent Growth (T-47D; [11]): −32%
Percent Growth (T-47D; [13]): 92%
Percent Growth (T-47D; [14]): 105%
Percent Growth (T-47D; [15]): 101%
GI50 (UACC-62): 3.98 µM
IC50 (UACC-62): > 100 µM
